US20080319065A1, “Systemic and Intrathecal Effects of a Novel Series of Phospholipase A2 Inhibitors on Hyperalgesia and Spinal Pge2 Release” (The Regents of the University of California, priority 2005, published 2008)

Assays:
spinal release of PGE2 = assay: Intrathecal dialysis and PGE2 assay; format: in vivo, rat; details: 3 mg/kg IP pretreatment
From the text: For spinal drug injections, lumbar catheters were implanted in rats under isoflurane anesthesia according to a modification of the procedure described by Yaksh (Yaksh and Rudy, supra, 1976). A polyethylene catheter (PE-5; Spectranetics, 0.014 in OD) was inserted into the intrathecal space and advanced to the rostral edge of the lumbar enlargement through an incision in the atlanto-occipital membrane. Five days after implantation rats were entered into the study. In separate experiments to assess spinal prostaglandins release, rats were prepared with lumbar loop dialysis catheters with three lumens, as previously described, see (Yaksh, et al., supra, 2001).
In brief, the outer two lumens were connected to a length of dialysis tubing (10 Kda cut off). The catheter was then implanted intrathecally using the same technique as described above for the intrathecal catheter. A three-day interval was allowed to elapse prior to including the animal in a study. In all cases, the exclusion criteria were i) presence of any neurological sequelae, ii) 20% weight loss after implantation, or iii) catheter occlusion.
Spinal dialysis experiments to define the spinal release of PGE2 were conducted in unanesthetized rats 3 days after dialysis catheter implantation. A syringe pump (Harvard, Natick, Mass.) was connected and dialysis tubing was perfused with artificial cerebro spinal fluid (ACSF) at a rate of 10 μl/min. The ACSF contained (mM) 151.1 Na^+, 2.6 K^+, 0.9 Mg^2+, 1.3 Ca^2+, 122.7 Cl^−, 21.0 HCO3, 2.5 HPO4 and 3.5 dextrose and was bubbled with 95% O2/5% CO2 before each experiment to adjust the final pH to 7.2. The efflux (20 min per fraction) was collected in an automatic fraction collector (Eicom, Kyoto, Japan) at 4° C. […] The concentration of PGE2 in spinal dialysate was measured by ELISA using a commercially available kit (Assay Designs 90001, Assay Designs, Ann Arbor, Mich.). The antibody is selective for PGE2 with less than 2.0% cross-reactivity to PGF1, PGF2, 6-ketoPGF1, PGA2 or PGB2, but cross-reacts with PGE1 and PGE3.

[1] = target: T1, Group VIA iPLA2 (GVIA PLA2) (Homo sapiens, UniProt O60733); assay: In vitro Group VIA iPLA2 mixed micelle assay; format: biochemical; details: for Inhibition of GVIA PLA2: at highest dose
T1 sequence (O60733 1-806): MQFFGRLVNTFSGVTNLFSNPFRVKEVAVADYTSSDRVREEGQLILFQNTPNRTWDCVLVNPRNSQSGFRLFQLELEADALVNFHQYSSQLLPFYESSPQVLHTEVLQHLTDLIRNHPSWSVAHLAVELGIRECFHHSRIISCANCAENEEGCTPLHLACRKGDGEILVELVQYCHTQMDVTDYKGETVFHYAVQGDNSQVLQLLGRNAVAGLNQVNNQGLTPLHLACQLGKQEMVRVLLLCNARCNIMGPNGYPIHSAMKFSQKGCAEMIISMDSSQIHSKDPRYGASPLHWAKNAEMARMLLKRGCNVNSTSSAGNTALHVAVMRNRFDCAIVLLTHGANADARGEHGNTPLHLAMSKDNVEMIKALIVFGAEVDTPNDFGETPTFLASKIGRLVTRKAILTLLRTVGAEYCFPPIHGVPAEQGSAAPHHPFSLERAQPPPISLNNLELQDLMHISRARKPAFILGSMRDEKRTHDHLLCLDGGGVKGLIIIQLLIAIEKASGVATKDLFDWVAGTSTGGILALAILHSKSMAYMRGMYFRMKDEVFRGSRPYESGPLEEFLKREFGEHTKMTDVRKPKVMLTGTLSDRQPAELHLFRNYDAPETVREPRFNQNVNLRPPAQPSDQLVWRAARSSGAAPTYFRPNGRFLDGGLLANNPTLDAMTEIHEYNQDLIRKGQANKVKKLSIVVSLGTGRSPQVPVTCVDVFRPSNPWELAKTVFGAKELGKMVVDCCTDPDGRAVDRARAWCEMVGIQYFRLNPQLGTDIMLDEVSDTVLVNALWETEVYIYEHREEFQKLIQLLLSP
Method: (§1) Numerous 2-oxoamides were tested for inhibition of PLA2s in in vitro assay systems. The data, summarized in Tables 1a, 1b and 2 are represented as XI(50) values unless otherwise noted. XI(50) is defined as the inhibitor concentration that produced 50% inhibition. XI(50) is used as opposed to the more common IC50 because GIVA and GVIA PLA2 are active at a two-dimensional lipid interface rather than in three-dimensional solution. (Deems, Anal. Biochem., 287:1-16, 2000). The 2-oxoamide inhibitors likely partition to the micelle interface and therefore must be represented as a percentage of surface concentration (mole fraction) as opposed to bulk concentration (molar units). (Kokotos, et al., J. Med. Chem., 45:2891-2893, 2002).
(§2) In vitro Group IV cPLA2 and Group VI iPLA2 assays were done as previously described (Kokotos, et al., supra, 2002). Briefly, 100 μM lipid substrate and 100,000 cpm radiolabeled analog were dried down under N2 and dissolved in assay buffer containing 400 μM Triton X-100 to yield a mixed micelle substrate solution. Inhibitors dissolved in DMSO were added to the reaction tubes and allowed to incubate with substrate for five minutes at 40° C. Pure enzyme was added to yield a final volume of 500 μl, and digestion was carried out at 40° C. for 30 minutes. Reactions were quenched and extracted using the Dole method and products were quantified by liquid scintillation counting. Percent inhibition was determined at a range of inhibitor mole fraction concentrations for XI(50) calculations.

[2] = target: T2, Group IVA cPLA2 (GIVA PLA2) (Homo sapiens, UniProt P47712); assay: In vitro Group IVA cPLA2 mixed micelle assay; format: biochemical; details: for Group IVA XI(50) (mole fraction): Table 1b; for Inhibition of GIVA PLA2: at highest dose
T2 sequence (P47712 1-749): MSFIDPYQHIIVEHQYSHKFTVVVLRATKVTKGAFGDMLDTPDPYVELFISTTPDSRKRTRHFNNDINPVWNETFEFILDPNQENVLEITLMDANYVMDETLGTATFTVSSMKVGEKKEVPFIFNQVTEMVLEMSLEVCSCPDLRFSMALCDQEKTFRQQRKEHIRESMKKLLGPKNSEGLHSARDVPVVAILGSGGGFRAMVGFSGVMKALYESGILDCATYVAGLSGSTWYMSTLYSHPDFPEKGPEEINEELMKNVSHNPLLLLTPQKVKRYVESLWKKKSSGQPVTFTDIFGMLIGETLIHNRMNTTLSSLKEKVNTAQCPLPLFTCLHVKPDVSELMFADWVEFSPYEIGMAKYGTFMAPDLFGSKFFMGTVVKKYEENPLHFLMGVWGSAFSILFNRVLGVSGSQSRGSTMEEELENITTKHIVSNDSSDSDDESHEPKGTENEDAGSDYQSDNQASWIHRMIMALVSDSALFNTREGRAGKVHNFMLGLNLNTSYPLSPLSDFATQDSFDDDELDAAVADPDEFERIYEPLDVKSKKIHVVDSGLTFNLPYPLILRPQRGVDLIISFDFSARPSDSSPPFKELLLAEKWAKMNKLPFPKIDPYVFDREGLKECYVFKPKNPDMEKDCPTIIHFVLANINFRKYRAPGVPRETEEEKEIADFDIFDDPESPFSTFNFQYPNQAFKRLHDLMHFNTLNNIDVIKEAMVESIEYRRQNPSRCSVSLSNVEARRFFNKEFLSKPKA
Method: as §1, §2

[3] = test system: murine RAW 264.7 macrophage-like cell line; assay: Long-term LPS stimulation, PGE2 release; format: cell-based; details: low μM range
Method: Several 2-oxoamides were tested in the long-term lipopolysaccharide (LPS) stimulation pathway in the murine RAW 264.7 macrophage-like cell line. (Raschke, et al., Cell, 1978, 15, 261-267). This pathway requires GIVA PLA2 activity and results in the extracellular release of many eicosanoid compounds including the prostaglandin PGE2. (Gijon, et al., leukoc. Biol., 1999, 65, 330-336). […] In the low μM range, AX041 and AX073 reduced PGE2 release by roughly 40% (FIG. 1(D)). At 1 μM and 5 μM concentrations, small activations were often seen. The in vitro and cellular results together are consistent with the known roles of GVIA PLA2 given that AX010, a selective GVIA inhibitor, had no cellular effect. […] Inhibitors selective for GIVA PLA2 or dual specificity inhibitors reduce PGE2 levels, also consistent with the known role of GIVA PLA2 in PGE2 production.

GV sPLA2 = target: T3, GV sPLA2 (Homo sapiens, UniProt P39877); assay: GV sPLA2 activity assay; format: biochemical; details: at 0.091 mole fraction
T3 sequence (P39877 21-138): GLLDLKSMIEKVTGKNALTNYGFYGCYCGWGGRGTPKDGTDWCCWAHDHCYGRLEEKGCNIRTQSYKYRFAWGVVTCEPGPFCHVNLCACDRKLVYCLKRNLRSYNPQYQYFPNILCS
Method: GV sPLA2 activity was measured in a similar assay. The final assay buffer was composed of 50 mM Tris-HCl (pH 8.0) and 5 mM CaCl2. Each assay was performed in 500 μL total volume made up of 100 μL of 5× substrate solution (20 μL of 10 mM Triton X-100 and 80 μL assay buffer), 390 μL assay buffer, 10 μL GV sPLA2 solution (1 μL of 40 ng/μL stock and 9 μL assay buffer), and 5 μL of DMSO or 2-oxoamide in DMSO. The 5× substrate solution was prepared by drying down the phospholipids (in organic solvent) with N2. The appropriate volume of 10 mM Triton X-100 was added, heated and vortexed until clear. Then assay buffer was added to make a 5× substrate solution. The final mixed micelles were at 400 μM Triton X-100 and 100 μM DPPC (of which 100,000 cpm of ^14C-DPPC).

CCC(=O)C(=O)NCCCC(=O)O [AX006]
IT SP-evoked release of PGE2 in spinal dialysate (spinal release of PGE2): significant increase as compared to vehicle only | inhibition of GVIA PLA2 (iPLA2), in words [1]: do not inhibit GVIA PLA2 | Group VIA XI(50), class ([1]; at 0.091 mole fraction): N.D. (25% inhibition or less at 0.091 mole fraction) | Inhibition of GVIA PLA2 [1]: ND (negligible inhibition (0-25%) at highest dose) | inhibition of GIVA PLA2 (cPLA2), in words [2]: inhibit GIVA PLA2 | Group IVA XI(50) (mole fraction) [2]: 0.024 ± 0.015 mole fraction

COC(=O)CCCNC(=O)C(=O)CCCc1ccccc1 [AX037, 4-(2-Oxo-5-phenyl-pentanoylamino)-butyric acid methyl ester]
Inhibition of GVIA PLA2 [1]: ND (negligible inhibition (0-25%) at highest dose) | melting point: 30 to 31 °C | Inhibition of GIVA PLA2 [2]: ND (negligible inhibition (0-25%) at highest dose)

COC(=O)CCCNC(=O)C(=O)CCCCc1ccccc1 [AX038, 4-(2-Oxo-6-phenyl-hexanoylamino)-butyric acid methyl ester]
Inhibition of GVIA PLA2 [1]: ND (negligible inhibition (0-25%) at highest dose) | melting point: 52 to 54 °C | Inhibition of GIVA PLA2 [2]: ND (negligible inhibition (0-25%) at highest dose)

CCCCCCCCC=CCCCCCCCC(=O)C(=O)NCCCC(=O)O [AX040, 4-(2-Oxo-nonadec-10-enoylamino)-butyric acid]
inhibition of GVIA PLA2 (iPLA2), in words [1]: do not inhibit GVIA PLA2 | Inhibition of GVIA PLA2 [1]: ND (negligible inhibition (0-25%) at highest dose) | melting point: 57 to 59 °C | inhibition of GIVA PLA2 (cPLA2), in words [2]: inhibit GIVA PLA2

CCCCCCCCC=CCCCCCCCC(=O)C(=O)NCCCC(=O)OC [AX041, 4-(2-Oxo-nonadec-10-enoylamino)-butyric acid methyl ester]
reduction of PGE2 release [3]: roughly 40%

CCCCCCCCCCCCCCC(=O)C(=O)NCCCC(=O)OC(C)(C)C [AX057, tert-Butyl 4-[(2-oxohexadecanoyl)amino]butanoate]
efficacy against sPLA2 (GV sPLA2): 76.7% | IT SP-evoked release of PGE2 in spinal dialysate (spinal release of PGE2): significant increase as compared to vehicle only | Group VIA XI(50) (mole fraction) ([1]; Table 1b): 0.026 ± 0.014 mole fraction | melting point: 61 to 62 °C | Group IVA XI(50) (mole fraction) [2]: 0.031 ± 0.017 mole fraction

CCCCCCCCCCCCCCC(=O)C(=O)NC(C=CC(=O)O)CCCC (stereo not drawn) [AX074, 4-(2-Oxo-hexadecanoylamino)-oct-2-enoic acid]
inhibition of GVIA PLA2 (iPLA2), in words [1]: do not inhibit GVIA PLA2 | Inhibition of GVIA PLA2 [1]: ND (negligible inhibition (0-25%) at highest dose) | melting point: 65 to 67 °C | Inhibition of GIVA PLA2, XI(50) [2]: XI(50) =0.003 ± 0.001 mole fraction | inhibition of GIVA PLA2 (cPLA2), in words [2]: inhibit GIVA PLA2
